By inhibition is commonly meant the drop in the measured response relative to a control, in per cent. A higher inhibition goes with a response far below the control. For orientation: IC50 means the midpoint of a concentration-inhibition curve.

Molecules are shown by their SMILES.

Experimental findings from the Kinase Knowledgebase extract (Sharma et al. 2016) are described below.

The target of one test is MAPK14 (UniProt Q16539). Briefly: MAPK14 (p38) Inhibition. The following applies: concentration not given here.
MAPK14, sequence (Q16539 whole entry, looked up): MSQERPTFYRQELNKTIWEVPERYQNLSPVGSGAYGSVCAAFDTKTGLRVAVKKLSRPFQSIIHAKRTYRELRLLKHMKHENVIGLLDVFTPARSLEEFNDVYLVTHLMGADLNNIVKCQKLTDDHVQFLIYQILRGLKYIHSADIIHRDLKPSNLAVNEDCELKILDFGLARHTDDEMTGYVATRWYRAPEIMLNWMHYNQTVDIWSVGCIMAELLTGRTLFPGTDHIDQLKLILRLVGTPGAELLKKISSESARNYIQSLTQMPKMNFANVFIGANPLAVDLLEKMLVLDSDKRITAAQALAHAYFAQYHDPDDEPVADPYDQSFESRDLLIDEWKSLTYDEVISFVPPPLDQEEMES
`Fc1ccc(-c2[nH]c(C=C(Br)Br)nc2-c2ccncc2)cc1`: the inhibition was 93%. For the molecule `C[Si](C)(C)CCOCn1c(C=C(Br)Br)nc(-c2ccncc2)c1-c1ccc(F)cc1`, the inhibition is 16%. Still for that read-out and setting: the figure for `OCCCC#Cc1nc(-c2ccc(F)cc2)c(-c2ccncc2)n1CCCc1ccccc1` is 99%. Same read-out and setting: the figure for `OCCCCC#Cc1nc(-c2ccc(F)cc2)c(-c2ccncc2)n1CCCc1ccccc1` is 98%.

The target in a further test is MAPK14 (human) (UniProt Q16539). As to the kind of experiment: TNF-alpha Inhibition (PBMC).
MAPK14 (human), sequence (Q16539 whole entry, looked up): as above
Conditions: not given
On to `O[C@@H](C#Cc1nc(-c2ccncc2)c(-c2ccc(F)cc2)[nH]1)c1ccccc1`, for which the concentration for half-maximal inhibition (IC50) was found to be 400 nM. The molecule `C[Si](C)(C)CCOCn1c(C#CCCCCO)nc(-c2ccncc2)c1-c1ccc(F)cc1` came in with a concentration for half-maximal inhibition (IC50) above 2000 nM. With `C[Si](C)(C)CCOCn1c(C#CCCCC#N)nc(-c2ccncc2)c1-c1ccc(F)cc1`, the IC50 was above 2000 nM. On the same count and under the same terms, as for `CCCCCCC#Cc1nc(-c2ccc(F)cc2)c(-c2ccncc2)n1CCCc1ccccc1`, the figure is 90 nM.

In the next test the test system is MAPK14 (BALB/cJ mice). Briefly: TNF-alpha Inhibition (Mice Model). The following applies: dose or concentration not given here.
For `N#CCCCC#Cc1nc(-c2ccc(F)cc2)c(-c2ccncc2)[nH]1`, the inhibition is 95%.
